Measured values from PubChem BioAssay (NCI).
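Where inhibition never reached the appropriate level, the endpoint shown equals the highest concentration tested. Otherwise, values were interpolated linearly from a five-concentration, 48-hour dose response in 96-well plates. GI50 = concentration required for 50% inhibition of growth. TGI denotes the concentration required for complete inhibition of growth.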

Tests used:
Experiment in all cases: inhibition of tumour cell growth, NCI panel, 48 h
[1] = system: SN12C renal
[2] = system: UACC-257 melanoma
[3] = system: SR leukemia
[4] = system: SK-OV-3 ovarian
[5] = system: CCRF-CEM leukemia
[6] = system: K-562 leukemia
[7] = system: HCT-15 colon
[8] = system: NCI-H23 lung
[9] = system: SK-MEL-2 melanoma
[10] = system: HL-60(TB) leukemia

Row | Structure (SMILES) | TGI [1] [µM] | TGI [2] [µM] | TGI [3] [µM] | TGI [4] [µM] | TGI [5] [µM] | TGI [6] [µM] | TGI [7] [µM] | TGI [8] [µM] | TGI [9] [µM] | TGI [10] [µM] | GI50 [1] [µM] | GI50 [2] [µM] | GI50 [3] [µM] | GI50 [4] [µM] | GI50 [5] [µM] | GI50 [6] [µM] | GI50 [7] [µM] | GI50 [8] [µM] | GI50 [10] [µM]
1 | COc1cc(Cc2ccc3c(c2C#N)N(C)c2ccccc2S3)cc(OC)c1OC | > 100 | > 100 | > 100 | > 100 | > 100 | > 100 | 61.3 | > 100 | > 100 | > 100 | – | – | – | – | – | – | – | – | –
2 | CCOC(=O)/C(=N/Nc1ccc(Cl)cc1)N1C(=S)C=C(C)NN(C)C1=S | > 100 | > 100 | > 100 | > 100 | > 100 | > 100 | > 100 | > 100 | > 100 | > 100 | – | – | – | – | – | – | – | – | –
3 | COc1cc2nc(N3CCC[C@@H](NC4=CC(=O)c5ccccc5C4=O)C3)nc(N)c2cc1OC | 3.44 | 38 | 0.892 | 4.08 | 4.56 | 2.36 | 6.02 | 4.3 | – | 4.05 | 1.73 | 16.6 | 0.266 | 2.03 | 1.96 | 0.427 | 2.31 | 1.99 | 1.96
4 | CCOC(=O)C(=O)Nc1cccc(C)c1C | > 100 | > 100 | > 100 | > 100 | > 100 | > 100 | > 100 | > 100 | > 100 | > 100 | – | – | – | – | – | – | – | – | –
5 | COc1cc(C2S/C(=C/c3ccccc3)C(=O)N2c2ccccc2Cl)cc(OC)c1OC (centres undefined) | 62.1 | > 100 | – | > 100 | – | – | > 100 | > 100 | 39.7 | – | – | – | – | – | – | – | – | – | –
6 | COC(=O)C1=C(O)C(C(=O)OC)[C@@]2(O)[C@@H](C(=O)OC)CC[C@@H]1[C@@H]2C(=O)OC (some centres undefined) | > 100 | > 100 | 63.9 | 34.6 | > 100 | > 100 | 64.2 | 56.6 | 49.3 | 76.6 | – | – | – | – | – | – | – | – | –
7 | BrC1=CN2C[n+]3cc(Br)c4ccccc4c3N=C2c2ccccc21 | 50.4 | 48.8 | 9.01 | 51.8 | 34.4 | 39.5 | > 100 | 56.4 | 22.3 | 58.5 | – | – | – | – | – | – | – | – | –
